Three compounds from US20100034901A1, “ANIMAL FEED COMPOSITIONS” (priority 2006, published 2010) can be followed below.

Entries after “also recorded” stand apart in the source; their conditions may differ.

The test system of one assay is turkeys. Nature of the assay: Turkey Study 3: growth, lameness scoring, femur breaking force, cartilage indenter test. It is filed as in vivo. The following applies: for leg weakness scores (mean): 5 point scale, control 3.0; for growth response (bird weight) / growth rates: groups with boron versus groups without boron. An excerpt: 250 turkeys were selected at random at week 11 and divided into 5 treatment groups: 1) control, 2) ascorbate only “(VC”), 3) boron only (“B”), 4), boron and ascorbate (“B+C”), and 5) ½ rate boron and full rate ascorbate (“LoB+C”). Full rates of both boron and ascorbate were as described for study 1. At 17 weeks, all birds were weighed, scored for lameness/mobility/gait abnormality using the five point scale used in study 1, and sacrificed. The femur was dissected from each leg of each bird and subjected to an ultimate breaking force analysis. Cartilage at the femoral distal condyle was subjected to an indenter test.
For the lameness/mobility/gait abnormality scoring, three graders were used. Two of the graders were “blind” graders unaware of each turkey's grouping. The third grader was a “biased” grader aware of each turkey's grouping. Partial grading on the 5 point scale described above was allowed. FIG. 11 presents the cross-tabulation of the graders' results.

Assay [1] deals with sows, piglets and pigs on farms. It is filed as in vivo. As to conditions: sows on 1 mg/kg body weight boron as boric acid; usual mortality for this farm about 5 to 7%. As to the method: Boron was added to the diet of sows at 1 mg/kg body weight as boric acid. […] Among a group of 95 piglets the birth to weaning mortality was 2 piglets. The usual mortality for this farm was about 5 to 7%. These piglets remained on boron 50 ppm plus ascorbate 125 ppm. One pig was euthanized and examined at a weight of about 85 pounds. […] All bones of the appendicular skeleton were sectioned on the band saw.
An Iowa farm treated a group of about 100 pigs with 50 ppm boron as boric acid. None of these pigs developed any signs of lameness or unsoundness. The farmer reported that these pigs are the most sound he has raised. The estimated previous lameness/unsoundness rate was about 25 to 30%, and zero in the test group. […] The absence of lameness and hock swelling was observed. Two pigs with hock swelling were euthanised from among the younger and older pigs not treated with boric acid. […] An older pig of about 250 pounds body weight with severe lameness in the right hock was euthanised.

The test system of the next assay is sows and their litters. Nature of the assay: Sow and litter trial in a commercial swine operation during a PRRSV outbreak. In kind it is in vivo. The following applies: sows given 1 mg boron per pound BW per day. On the procedure: To test the effect of boron on sows and their litters, a trial was established in a large commercial swine operation during an outbreak of porcine viral reproductive and respiratory disease (PRRSV). Boron was administered orally to a group of 51 sows individually housed in crates at the rate of 1 mg boron per pound BW per day beginning 1 week prior to farrowing and continuing until the piglets were weaned at 14 days of age. […] Boron treatment was supplied as a single daily dosing and was discontinued at weaning. All sows were fed a standard commercial sow diet.

The next assay deals with pig cartilage. Nature of the assay: Glycosaminoglycan study: sGAG in articular cartilage plugs of hock and elbow joints. It is filed as in vivo. The following applies: pigs fed 50 ppm boron. On the procedure:
Hock joints and elbow joints were obtained at necropsy from pigs in two feeding groups: one group having been fed a commercial ration supplemented with 50 mg B/kg feed and the other being fed only the standard commercial pig ration.
Cartilage plugs were harvested from the articular surfaces of 40 hock and elbow joints using a #5 (10.5 mm) cork borer. The samples were papain digested and analyzed for concentration of sulfated glycosaminoglycan (sGAG) using a spectrophotometric microplate analysis procedure adapted from Farndale, et al (1986), using a chondrotin sulfate standard. This method measures total sulfated glycosaminoglycan, most of which is chondrotin sulfate and keratan sulfate components of aggrecan. Aggrecan is the large aggregating proteoglycan of cartilage responsible for creating and maintaining the osmotic pressure of cartilage. Quanititation of sGAG concentration thus provides a measure of the weight-bearing and anti-friction properties of cartilage and is a measure of cartilage quality and durability.

A further assay has as its system crossbred pigs. Nature of the assay: 28-day feeding trial: phosphorus digestibility and excretion, feed conversion. It is filed as in vivo, pig. The following applies: 50 ppm Added B; 28 days; N 12 pens. As to the method:
Pigs were randomly allocated to 24 pens of 6 pigs per pen in a thermoneutral controlled environment barn with steel grid flooring. Each pen was equipped with a single-hole feeder. Water was available free-choice from a nipple drinker. […] Feces were collected on the last 3 days of the study from each pen and a pooled aliquot was dried and submitted for chemical analysis. Yttrium oxide was added to the diet at 0.05% and served as a marker for phosphorus digestibility. Pig growth and feed consumption was measured at the end of the study with the pen as the experimental unit. Data was analyzed for effects of boron and calcium by univariate and multivariate analysis of variance and t-tests.

Assay [2] deals with pigs of about 100 kg body weight. Nature of the assay: 3-NPB study in pigs with or without supplemental boron.
Description: The pigs were evaluated for lameness daily and euthanatized on day 13 and the joints and other organs were examined.
A further assay concerns Duroc and Yorkshire pigs. Nature of the assay: Boron supplementation and OC-associated lameness in swine (Example 1). In kind it is in vivo, pig. As to the method: The basal diet consisted of commercial corn-soy diet containing 10 ppm boron.
Test diet group B was fed a basal diet plus 25 mg/kg boron as sodium borate decahydrate (borax). Test diet group A was fed a basal diet plus 25 mg/kg boron as sodium borate decahydrate (borax) and 250 mg/kg ascorbic acid.
Pigs were weighed at the beginning of the study, 4 weeks later and every 3 weeks until the end of the study. Animals were scored for soundness on a 5-point scale at each weighing. (Five-point scale: 1=no soundness defects; 2=minor soundness issues but still sound enough for retention as breeding animal; 3=not sound enough for retention for breeding but still marketable; 4=unsound, likely to be rejected at slaughter; 5=severely lame, requiring euthanasia for humane reasons.) Grading was done by the caretaker and the investigator at all weighing times. An experienced independent treatment-blind rater also evaluated the soundness of each animal and the ratings he provided were compared with the ratings of the caretaker and investigator by use of Cohen's Kappa test.
The animals were housed in a modern curtain sided barn with deep straw bedding, with ad libitum access to feed and water. Waterers and feeders were on a concrete pad but the remainder of the flooring was deep straw over a ground limestone and sand base. Floor space allowances exceeded the recommendations of the Guide for the Care and Use of Agricultural Animals in Agricultural Research and Teaching, First Revised Edition, 1999. Federation of Animal Science Societies. Savoy, Ill.
The basal diet (no boron supplemented) was analysed and found to contain boron at the rate of 10 ppm which is typical for a corn-soybean meal based diet.
At the end of the study the pigs were transported to a laboratory where they were euthanized and necropsied. Six pigs in each of group B and group A were put on the control diet for 7 days at the end of the study.
At necropsy, samples of liver, heart, kidney, fat, skeletal muscle, proximal tibia, blood, and the rostral snout were retained and frozen at −40° C. prior to chemical analysis. All joints of the axial skeleton were evaluated for the presence of gross lesions of osteochondrosis and graded on a 5 point scale. (5-point scale: 1=no gross abnormalities; 2=minor imperfections in articular conformation or articular reddening present but no cartilage erosions; 3=cartilage intact but surface irregularities of the cartilage are present; 4=fissuring or erosion of articular cartilage is obvious; 5=full thickness cartilage lesions or cartilage flaps, osteochondritis dissecans obviously present).
The proximal femur (femoral head) and articular surfaces and growth plates associated with the stifle, hock, shoulder, elbow and carpus were sectioned with a band saw and approx. 0.5 to 1.0 cm sections fixed in formalin. […]
Mean joint lesion scores, growth rate and soundness scores by treatment and by factors boron and ascorbate were compared using an analysis of variance and t-test as appropriate. Soundness scores were dichotomised into binary categorical variables for lameness (soundness score>2) and for absence of defects (soundness<2), and the binary variables analysed by chi-square and logistic regression.
Tissue specimens stained with H&E were examined microscopically for the presence of lesions of osteochondrosis. […] Each tissue section was scored by a treatment-blind board-certified pathologist. […]

The mark [3] stands for this setting: boron supplementation 50 ppm, 3-NPB none.

`O=C1O[C@H]([C@@H](O)CO)C(O)=C1O` [ascorbate, ascorbic acid, reference compound]: in the assay with turkeys, the “leg weakness scores (mean)” value was “did not significantly improve”. Further, the “bone strength as measured by 3-point bending test” value with turkeys (administered in drinking water) was “slightly improved bone strength”. In the assay on turkeys (week 11 to 17), the “cartilage strength by indenter test at the femoral distal condyle (FIG. 27)” value is “statistically significant effect; also recorded: improved cartilage strength” and the “effect on femur break force (main effects analysis, FIG. 26)” value was “lesser effect”.

As for `OB(O)O` [boric acid], the “birth to weaning mortality among a group of 95 piglets” value in assay [1] was determined as 2 piglets.

Turning to `[B]` [Boron], in the assay on sows and their litters, the “litter size at birth” value is on record as “no effects” and the piglet birth weight entry is “no effects”. For the same compound, the “sGAG concentration (dry matter basis) in the cartilage” value with pig cartilage turned out to be 11050 ng/g. In the assay on crossbred pigs, the “Feed Conversion Ratio (feed/gain)” value was 2.32. Further, in assay [2] (setting [3]), the “Clinical Lameness Score: Normal (count of pigs)” value is on record as 5 and the “Clinical Lameness Score: Visible Lameness (count of pigs)” value amounted to 0. For the same compound, the “prevalence and severity of osteochondrosis lesions (shoulder, stifle, hock and elbow joints)” value in assay [2] (supplemental boron and no 3-NPB) was “lowest prevalence of lesions and the lowest severity”. Further, in the assay on Duroc and Yorkshire pigs (boron supplemented group vs unsupplemented pigs), the “TBlue staining intensity (semi-quantitative measure of sGAG content of cartilage)” value is listed as “consistently higher”. The “joint condition vs basal diet with no supplemental boron (FIG. 1)” value with Duroc and Yorkshire pigs (growing swine supplemented with boron) is reported as “healthier joints”. Also, the “Growth plate lesions associated with widening, found in % of tissues” value in the assay with Duroc and Yorkshire pigs (pigs receiving 25 ppm boron, microscopic sections of articular cartilage and growth plate) was 19%. In addition, the “Articular cartilage lesions (necrosis, hemorrhage, infarction, or streaks), found in % of tissues” value with Duroc and Yorkshire pigs (pigs receiving 25 ppm supplemental B, microscopic sections) is 4%. The “occurrence of OC in pigs” value in the assay on Duroc and Yorkshire pigs (supplemental boron at 25 ppm to 50 ppm, FIGS. 1, 3 and 4) is reported as “significant reduction”. Moreover, the “leg weakness scores (mean)” value in the assay with turkeys was 2.3. Also, the “improvement of bone strength as compared with the control” value in the assay with turkeys (boron alone, 3-point bending test of the femur) is 7.8%. In the assay on turkeys (week 11 to 17), the “effect on femur break force (main effects analysis, FIG. 26)” value was “large effect” and the “growth response (bird weight) / growth rates” value is on record as “improved”. Moreover, the “growth response (bird weight) / growth rates” value in the assay on turkeys (week 11 to 17, listed as B) is “significant”.
